Measurements taken from patent US7803795B2, “Phthalazine derivatives as parp inhibitors” (Janssen Pharmaceutica N.V., priority 2004, dated 2010).

Biological target: T1, PARP-1 enzyme (Homo sapiens, UniProt P09874)
T1 construct: made in house
Assay: in vitro filtration assay for PARP-1 inhibitory activity
Format: biochemical
Settings: [32P]-NAD, histones, nicked DNA; dose-response 10^-5 M to 10^-8 M; read-out: in vitro filter assay PARP-1 pIC50 (converted)
Method: In Vitro Filtration Assay for PARP-1 Inhibitory Activity
Compounds of the present invention were tested in an in vitro filtration assay assessing PARP-1 activity (triggered in the presence of nicked DNA) by means of its histone poly (ADP-ribosylation activity using [^32P]-NAD as ADP-ribosyl donor. The radioactive ribosylated histones were precipitated by trichloroacetic acid (TCA) in 96-well filterplates and the incorporated [^32P] measured using a scintillation counter
A mixture of histones (stock solution: 5 mg/ml in H2O), NAD^+ (stock solution: 100 mM in H2O), and [^32P]-NAD^+ in incubation buffer (50 mM Tris/HCl, pH 8; 0.2 mM DTT; 4 mM MgCl2) was made. A mixture of the PARP-1 enzyme (5-10 μg/ml) and nicked DNA was also made. The nicked DNA was prepared as described in the in vitro SPA for PARP-1 inhibitory activity. Seventy-five μl of the PARP-1 enzyme/DNA mixture together with 1 μl of compound in DMSO and 25 μl of histones-NAD^+/[^32P]-NAD^+ mixture was added per well of a 96-well filterplate (0.45 μm, supplier Millipore). The final concentrations in the incubation mixture were 2 μg/ml for the histones, 0.1 mM for the NAD^+, […] (0.5 μC) for the [^32P]-NAD^+ and 2 μg/ml for the nicked DNA. Plates were incubated for 15 min. at room temperature and the reaction was terminated by the addition of 10 μl ice cold 100% TCA followed by the addition of 10 μl ice-cold BSA solution (1% in H2O). The protein fraction was allowed to precipitate for 10 min. at 4° C. and plates were vacuum filtered. The plates were subsequently washed with, for each well, 1 ml of 10% ice cold TCA, 1 ml of 5% ice cold TCA and 1 ml of 5% TCA at room temperature. Finally 100 μl of scintillation solution (Microscint 40, Packard) was added to each well and the plates were transferred to a TopCountNXT™ (supplier: Packard) for scintillation counting and values were expressed as counts per minute (cpm). For each experiment, controls (containing PARP-1 enzyme and DMSO without compound), a blank incubation (containing DMSO but no PARP-1 enzyme or compound) and samples (containing PARP-1 enzyme and compound dissolved in DMSO) were run in parallel. All compounds tested were dissolved and eventually further diluted in DMSO. In first instance, compounds were tested at a concentration of 10^−5M. […] In each test, the blank value was subtracted from both the control and the sample values. The control sample represented maximal PARP-1 enzyme activity. For each sample, the amount of cpm was expressed as a percentage of the mean cpm value of the controls. When appropriate, IC50-values (concentration of the drug, needed to reduce the PARP-1 enzyme activity to 50% of the control) were computed using linear interpolation between the experimental points just above and below the 50% level. Herein the effects of test compounds are expressed as pIC50 (the negative log value of the IC50-value). As a reference compound, 4-amino-1,8-naphthalimide was included to validate the filtration assay.

T1 sequence (P09874 whole entry): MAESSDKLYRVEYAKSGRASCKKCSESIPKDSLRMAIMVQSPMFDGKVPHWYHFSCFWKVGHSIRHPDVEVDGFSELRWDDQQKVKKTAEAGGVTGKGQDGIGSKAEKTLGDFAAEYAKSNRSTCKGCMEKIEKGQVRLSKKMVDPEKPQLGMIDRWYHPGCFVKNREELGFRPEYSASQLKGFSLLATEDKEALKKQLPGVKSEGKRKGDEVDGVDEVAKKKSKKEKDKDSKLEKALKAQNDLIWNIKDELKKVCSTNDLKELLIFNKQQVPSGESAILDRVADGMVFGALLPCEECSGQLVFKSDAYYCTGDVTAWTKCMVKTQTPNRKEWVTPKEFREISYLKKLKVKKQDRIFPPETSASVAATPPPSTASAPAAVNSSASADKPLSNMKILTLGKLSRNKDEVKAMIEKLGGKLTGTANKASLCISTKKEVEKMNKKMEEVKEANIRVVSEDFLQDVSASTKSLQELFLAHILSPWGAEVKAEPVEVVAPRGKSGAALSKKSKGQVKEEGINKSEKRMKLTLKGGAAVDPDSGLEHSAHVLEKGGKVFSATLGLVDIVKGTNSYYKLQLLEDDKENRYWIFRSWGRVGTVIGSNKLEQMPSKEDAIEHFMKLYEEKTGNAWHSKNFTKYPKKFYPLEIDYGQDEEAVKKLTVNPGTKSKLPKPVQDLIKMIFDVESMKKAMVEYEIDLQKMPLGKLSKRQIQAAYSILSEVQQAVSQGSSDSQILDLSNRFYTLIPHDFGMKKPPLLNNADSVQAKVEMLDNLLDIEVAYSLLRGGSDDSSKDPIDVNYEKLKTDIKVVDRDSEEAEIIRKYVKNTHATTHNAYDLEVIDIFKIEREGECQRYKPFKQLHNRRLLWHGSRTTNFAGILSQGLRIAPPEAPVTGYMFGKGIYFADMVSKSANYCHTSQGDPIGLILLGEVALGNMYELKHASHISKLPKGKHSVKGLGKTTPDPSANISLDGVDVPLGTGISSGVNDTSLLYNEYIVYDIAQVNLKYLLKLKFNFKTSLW

Compound | IC50 [nM]
O=c1[nH]nc(NC2CCN(C[C@@H](O)[C@@H]3CCc4ccccc4O3)CC2)c2ccccc12 (relative stereo) [Compound 27] | 215
O=c1[nH]nc(C2CCN(Cc3ccccc3)CC2)c2ccccc12 [Compound 1] | 55
O=c1[nH]nc(N[C@@H]2C[C@H]3CC[C@@H](C2)N3CCCC(c2ccc(F)cc2)c2ccc(F)cc2)c2ccccc12 [Compound 3] | 204
O=c1[nH]nc(C2CCNCC2)c2ccccc12 [Compound 4] | 70.8
CCOC(=O)N1[C@@H]2CC[C@H]1C[C@H](Nc1n[nH]c(=O)c3ccccc13)C2 [Compound 11] | 30
Clc1nnc(NC2CCN(Cc3ccccc3)C2)c2ccccc12 (centres unmarked) [Compound 12] | 188
O=c1[nH]nc(C2CCN(CCCOc3ccc(F)cc3)CC2)c2ccccc12 [Compound 13] | 19.1
O=c1[nH]nc(N[C@@H]2C[C@H]3CC[C@@H](C2)N3)c2ccccc12 [Compound 15] | 35.5
CCOC(=O)N1[C@@H]2CC[C@H]1C[C@H](Nc1nnc(Cl)c3ccccc13)C2 [Compound 24] | 388
CCOC(=O)N1CCC(c2n[nH]c(=O)c3ccccc23)CC1 [Compound 25] | 240
Cc1nnc(N2CCN(CCCC(c3ccc(F)cc3)c3ccc(F)cc3)CC2)c2ccccc12 [Compound 29] | 302
O=c1[nH]nc(NC2CCCN(CCCC(c3ccc(F)cc3)c3ccc(F)cc3)CC2)c2ccccc12 (centres unmarked) [Compound 30] | 230
O=c1[nH]nc(NC2CCCNCC2)c2ccccc12 (centres unmarked) [Compound 34] | 49.4
O=c1[nH]nc(NCC2CCCN(Cc3ccccc3)C2)c2ccccc12 (centres unmarked) [Compound 44] | 221
O=c1[nH]nc(NC2CCN(CCCCOc3ccccc3)CC2)c2ccccc12 [Compound 46] | 134
CCOC(=O)N1CCC(Nc2n[nH]c(=O)c3ccccc23)C1 (centres unmarked) [Compound 48] | 163
O=c1[nH]nc(NCC2CCCN(CCCC(c3ccc(F)cc3)c3ccc(F)cc3)C2)c2ccccc12 (centres unmarked) [Compound 49] | 516
CCOC(=O)N1CCCC(Nc2n[nH]c(=O)c3ccccc23)CC1 (centres unmarked) [Compound 50] | 643
O=c1[nH]nc(NC2CCN(Cc3ccccc3)C2)c2ccccc12 (centres unmarked) [Compound 51] | 300
O=c1[nH]nc(N2CCN(CCCC(c3ccc(F)cc3)c3ccc(F)cc3)CC2)c2ccccc12 [Compound 52] | 356
O=c1[nH]nc(NC2CCCN(Cc3ccccc3)C2)c2ccccc12 (centres unmarked) [Compound 53] | 217

Compound | IC50 [nM]
O=c1[nH]nc(N2CCC(c3cccc(C(F)(F)F)c3)C2)c2ccccc12 (centres unmarked) [Compound 55] | 210
CCOC(=O)N1CCC(Nc2n[nH]c(=O)c3ccccc23)CC1 [Compound 56] | 774
Fc1ccc(C(CCCN2CCN(c3nnc(Cl)c4ccccc34)CC2)c2ccc(F)cc2)cc1 [Compound 57] | 472
CCOC(=O)N1CCN(c2nnc(Cl)c3ccccc23)CC1 [Compound 58] | 316
Clc1nnc(NC2CCN(CCCCOc3ccccc3)CC2)c2ccccc12 [Compound 59] | 813
CN(c1nc2ccccc2s1)C1CCN(c2nnc(Cl)c3ccccc23)CC1 [Compound 61] | 296
COc1ccc(CCN2CCC(Nc3n[nH]c(=O)c4ccccc34)CC2)cc1 [Compound 63] | 146
O=c1[nH]nc(NC2CCN(C/C=C/c3ccccc3)CC2)c2ccccc12 [Compound 65] | 91.2
O=c1[nH]nc(C2CCN(C/C=C/c3ccccc3)CC2)c2ccccc12 [Compound 66] | 96.4
O=c1[nH]nc(C2CCN(CCCC(c3ccc(F)cc3)c3ccc(F)cc3)CC2)c2ccccc12 [Compound 67] | 233
O=c1[nH]nc(C2CCN(CCCCOc3ccccc3)CC2)c2ccccc12 [Compound 68] | 50
O=c1[nH]nc(C2CCN(c3ncccn3)CC2)c2ccccc12 [Compound 69] | 125
Cc1nnc(N2CCN(CCn3c(=O)[nH]c4ccccc4c3=O)CC2)c2ccccc12 [Compound 70] | 268
Cc1nnc(N2CCN(CCn3c(=O)[nH]c4ccccc43)CC2)c2ccccc12 [Compound 71] | 533
Cc1nc2ccccn2c(=O)c1CCN1CCN(c2nnc(C)c3ccccc23)CC1 [Compound 72] | 1050
Cc1nc2sccn2c(=O)c1CCN1CCN(c2nnc(C)c3ccccc23)CC1 [Compound 73] | 515
Cc1nc2scc(C)n2c(=O)c1CCN1CCN(c2nnc(C)c3ccccc23)CC1 [Compound 74] | 610
Cc1nc2n(c(=O)c1CCN1CCN(c3nnc(C)c4ccccc34)CC1)CCS2 [Compound 75] | 361
Cc1nc2n(c(=O)c1CCN1CCN(c3nnc(C)c4ccccc34)CC1)CCCS2 [Compound 76] | 413
Clc1nnc(N2CCN(c3ccccc3)CC2)c2ccccc12 [Compound 77] | 168
